Experimental data from patent US7884136B2, “Modified-release formulations of a bupropion salt” (Biovail Laboratories International S.R.L., priority 2005, dated 2011).

Experiment: Accelerated stability study of bupropion HBr, closed bottles, 40° C./75% RH, 3 and 6 months, HPLC
Format: physicochemical
Conditions: 40° C., R.H. 75%; for Chromatographic purity B) (HPLC) 4) 2-N-(tert-Butyl)-aminopropiophenone / Chromatographic purity B) (HPLC) 5) single unknown impurity (each): LOQ 0.02%, LOD 0.002%; for Chromatographic purity A) (HPLC) 1) 3′-Chloropropiophenone / Chromatographic purity A) (HPLC) 3) 3′-Chlorobenzoic acid / Chromatographic purity A) (HPLC) 2) 3′-Chloro-2-bromopropiophenone: LOQ 0.05%; for Chromatographic purity A) (HPLC) 1) 3′-Chloropropiophenone / Chromatographic purity A) (HPLC) 3) 3′-Chlorobenzoic acid: LOD 0.01%; for Chromatographic purity A) (HPLC) 2) 3′-Chloro-2-bromopropiophenone: LOD 0.04%
Method: The samples were prepared in closed bottles and placed in the stability chamber. HPLC analysis was conducted on the samples prior to placing them in the stability chamber (time 0), and after 3 months and 6 months. The amounts of the main degradation products present at time 0 were compared with those amounts present after 3 months and 6 months. […] For each sample tested, at each time period, two different HPLC assays were run. The first assay labelled chromatographic purity A, measured the percentage of three impurities 3′chloropropiophenone, 3′-Chloro-2-bromopropiophenone and 3′-Chlorobenzoic acid. The second assay, labelled chromatographic purity B, measured the percentage of 2-N-(tert-Butyl)-aminopropiophenone, a single unknown impurity and the total unknown impurities.

## Br.CC(NC(C)(C)C)C(=O)c1cccc(Cl)c1 (stereo not drawn) [Bupropion•HBr]
Batch D00894, 3 month
  Assay (HPLC): 99.6 % on d.b.
  Chromatographic purity (HPLC: A + B) Total impurities: 0.1%
  Chromatographic purity B) (HPLC) 6) total unknown impurities: 6) 0.06%
  Description (white or almost white crystalline powder): conform
  Identification IR, HPLC: positive
  Water content (K.F.): 0.07%
  Chromatographic purity B) (HPLC) 4) 2-N-(tert-Butyl)-aminopropiophenone: 4) 0.03%
  Chromatographic purity B) (HPLC) 5) single unknown impurity (each): 5) 0.04%
  Chromatographic purity A) (HPLC) 1) 3′-Chloropropiophenone: 1) n.q.
  Chromatographic purity A) (HPLC) 3) 3′-Chlorobenzoic acid: 3) n.q.
  Chromatographic purity A) (HPLC) 2) 3′-Chloro-2-bromopropiophenone: 2) n.d.
Batch D00894, 6 months
  Assay (HPLC): 99.7 % on d.b.
  Chromatographic purity (HPLC: A + B) Total impurities: 0.1%
  Chromatographic purity B) (HPLC) 6) total unknown impurities: 6) 0.02%
  Description (white or almost white crystalline powder): conform
  Identification IR, HPLC: positive
  Water content (K.F.): 0.08%
  Chromatographic purity B) (HPLC) 4) 2-N-(tert-Butyl)-aminopropiophenone: 4) 0.04%
  Chromatographic purity B) (HPLC) 5) single unknown impurity (each): 5) n.q.
  Chromatographic purity A) (HPLC) 1) 3′-Chloropropiophenone: 1) 0.05%
  Chromatographic purity A) (HPLC) 3) 3′-Chlorobenzoic acid: 3) n.q.
  Chromatographic purity A) (HPLC) 2) 3′-Chloro-2-bromopropiophenone: 2) n.d.
Batch D00894, time 0
  Assay (HPLC): 99.6 % on d.b.
  Chromatographic purity (HPLC: A + B) Total impurities: 0.1%
  Chromatographic purity B) (HPLC) 6) total unknown impurities: 6) 0.04%
  Description (white or almost white crystalline powder): conform
  Identification IR, HPLC: positive
  Water content (K.F.): 0.05%
  Chromatographic purity B) (HPLC) 4) 2-N-(tert-Butyl)-aminopropiophenone: 4) 0.04%
  Chromatographic purity B) (HPLC) 5) single unknown impurity (each): 5) 0.04%
  Chromatographic purity A) (HPLC) 1) 3′-Chloropropiophenone: 1) n.d.
  Chromatographic purity A) (HPLC) 3) 3′-Chlorobenzoic acid: 3) n.q.
  Chromatographic purity A) (HPLC) 2) 3′-Chloro-2-bromopropiophenone: 2) n.d.
Batch D00895, 3 month
  Assay (HPLC): 100.7 % on d.b.
  Chromatographic purity (HPLC: A + B) Total impurities: 0.1%
  Chromatographic purity B) (HPLC) 6) total unknown impurities: 6) 0.05%
  Description (white or almost white crystalline powder): conform
  Identification IR, HPLC: positive
  Water content (K.F.): 0.07%
  Chromatographic purity B) (HPLC) 4) 2-N-(tert-Butyl)-aminopropiophenone: 4) 0.03%
  Chromatographic purity B) (HPLC) 5) single unknown impurity (each): 5) 0.04%
  Chromatographic purity A) (HPLC) 1) 3′-Chloropropiophenone: 1) n.q.
  Chromatographic purity A) (HPLC) 3) 3′-Chlorobenzoic acid: 3) 0.05%
  Chromatographic purity A) (HPLC) 2) 3′-Chloro-2-bromopropiophenone: 2) n.d.
Batch D00895, 6 months
  Assay (HPLC): 99.7 % on d.b.
  Chromatographic purity (HPLC: A + B) Total impurities: 0.1%
  Chromatographic purity B) (HPLC) 6) total unknown impurities: 6) 0.02%
  Description (white or almost white crystalline powder): conform
  Identification IR, HPLC: positive
  Water content (K.F.): 0.07%
  Chromatographic purity B) (HPLC) 4) 2-N-(tert-Butyl)-aminopropiophenone: 4) 0.04%
  Chromatographic purity B) (HPLC) 5) single unknown impurity (each): 5) n.q.
  Chromatographic purity A) (HPLC) 1) 3′-Chloropropiophenone: 1) 0.05%
  Chromatographic purity A) (HPLC) 3) 3′-Chlorobenzoic acid: 3) n.q.
  Chromatographic purity A) (HPLC) 2) 3′-Chloro-2-bromopropiophenone: 2) n.d.
Batch D00895, time 0
  Assay (HPLC): 99.2 % on d.b.
  Chromatographic purity (HPLC: A + B) Total impurities: 0.1%
  Chromatographic purity B) (HPLC) 6) total unknown impurities: 6) 0.04%
  Description (white or almost white crystalline powder): conform
  Identification IR, HPLC: positive
  Water content (K.F.): 0.04%
  Chromatographic purity B) (HPLC) 4) 2-N-(tert-Butyl)-aminopropiophenone: 4) 0.04%
  Chromatographic purity B) (HPLC) 5) single unknown impurity (each): 5) 0.04%
  Chromatographic purity A) (HPLC) 1) 3′-Chloropropiophenone: 1) n.d.
  Chromatographic purity A) (HPLC) 3) 3′-Chlorobenzoic acid: 3) n.q.
  Chromatographic purity A) (HPLC) 2) 3′-Chloro-2-bromopropiophenone: 2) n.d.
